Data reported in patent US10959998B2, “Pharmaceutical use and pharmaceutical composition of pyrroloquinoline quinine, its derivatives and/or its salts” (priority 2015, dated 2021).

Assays:
EM lesions = details: cited from earlier work; for lesion of EM model mice: Ricci et al. 2013, by antioxidation effect
ectopic endometrial foci = assay: Endometriosis rat model, weight of transplanted foci; assay type: in vivo, SD rats; details: for weight of ectopic endometrial foci compared with the control group / weight of cysts after treatment (mg) Mean ± SD: Example 5, rats; for weight of cysts after treatment (mg) Mean ± SD: water feeding 4 week, PQQ 1 mg/kg, NAC 10 mg/kg, Resveratro 10 mg/kg, n=9
[1] = test system: ectopic endometrial stromal cells; assay: MTT cell proliferation of ectopic endometrial stromal cells; assay type: cell-based, human
Description: Endometrial tissues were surgically isolated from patients with chocolate cyst of ovary, washed 2 to 3 times with PBS supplemented with antibiotics in ultra-clean cabinet, and cut into tiny pieces (about 1 mm^3 in size) with aseptic scissors. The tissues were digested with 1 mg/ml collagenase type I for 30 to 90 min at 37° C., and continually digested with Dnase I (final concentration of 15 U/ml, 2% Dnase I) for another 30 min. The digested tissues were filtered thorough 60-mesh stainless steel filter cell strainer to remove the undigested cell tissues, and were further filtered with 200- or 400-mesh strainer. The filtered solution was centrifuged at 1000 rpm for 5 min. After removing the supernatants, the cells were washed once with culture medium compounded by DMEM/F12 (1:1 v/v) and 10% fetal bovine serum, re-suspended in the culture medium, and seeded in 6-well tissue culture plate or T25 tissue culture flasks with an appropriate density. After 24 hours incubation, the culture medium was changed to remove the non-adherent blood cells, endothelial cells, macrophages and other miscellaneous cells. After primary human endometrial stromal cells were grown to reach 90% confluence, the cells were digested with 0.25% trypsin for 4 to 6 min, and then subcultured with a split ratio of 1:2 to 1:3. Vimentin which expresses specifically in stromal cells was detected by immuno-fluorescence to measure the cell purity. The cells of purity >95% were used in the following experiments. Primary ectopic endometrial stromal cells of human were subcultured and the subcultured cells of the 3th to 6th passages were chosen as experimental subjects. The cells in logarithmic growth phase were […] and incubated in the cell culture plate at a density of 50%˜60% (i.e. 2×10^4 cells/well). After growing adherent on the wall for 24 hours, the cultured cells were divided into groups and each group was given different doses of PQQ. 20 μL MTT (5 mg/ml in PBS, pH=7.4) was added to each well at indicated time points. The cells were incubated in an incubator at 37° C. in a 5% CO2 atmosphere for 4 h. At the end of incubation, the culture supernatant in each cell was carefully aspirated away. 150 μL DMSO was added to each well. Then the wells were shaken with Orbital shaker for 10 min. The absorbance of each cell was detected at wavelength 490 nm. Finally, the cell proliferation curve was drawn. Primary ectopic endometrial stromal cells were cultured and the subcultured cells of the 3th to 6th passage were chosen as experimental subjects. The cells in logarithmic growth phase were […] and incubated in the cell culture plate at a of 50%˜60% (e.g. 2×10^4 cells/well). The cells grew adhering to the wall for 24 hours before being treated with drugs. The cells were divided into groups and each group was given different dose of PQQ. At indicated time point, 20 μL […] (5 mg/ml in PBS, pH=7.4) was added to every well. The cells were then incubated in an incubator at 37° C. in a 5% CO2 atmosphere for 4 h. After terminating incubation, the culture supernatant in each cell was carefully aspirated away, but formazan crystals should not be aspirated away in any case. 150 μL DMSO was added to each well respectively. All the wells were shaken with Orbital shaker for 10 min to make the crystals adequately solubilized. The absorbance of each cell was detected at wavelength 490 nm. Finally, the cell proliferation curve was drawn.

[2] = test system: infiltration of endometrial stroma and glands into myometrium; assay: Adenomyosis mouse model created with tamoxifen, pathological section; assay type: in vivo, mice
Description: Disodium salt of PQQ was used in the present experiment (PQQ-Na2, donated by MITSUBISHI gas chemical (MGC), Japan). The salt was dissolved with water and the concentration of its mother liquid is 1 mg/mL.
In the present Example, the mouse model of adenomyosis was created with tamoxifen. This method is easy to operate, the rate of molding can reach 100%, and the difference between the model mouses caused by the operation is small. At 2˜5 days after birth (the birth day was the first day), the mice were fed with 5 ul/(g·BW) peanut oil/lecithin/condensed milk mixture (volume ratio 2:0.2:3) supplemented with 0.2 mg/ml tamoxifen (produced by shanghai Fudan Fuhua Pharmaceutical Co, Ltd.) by drip feeding. In the negative control group, the mice were fed with peanut oil/lecithin/condensed milk mixture (volume ratio 2:0.2:3), with no tamoxifen added. All the mice were exposed to light for 12 h/day, and were reared by maternal lactation during 1-21 days of age. After 22 days of birth, the mice were separated with mother mice, and the female mice were reserved for the next experiment.
After 3 months, 7 model mice were killed after anesthesia. […] The remaining model mice were divided into 5 groups with 20 mice in each group. One of the groups was chosen as model control group (fed with normal water). The drinking water for other group were supplemented with PQQ (1 mg/kg/day), NAC (10 mg/kg/day), PQQ (1 mg/kg/day) +NAC (10 mg/kg/day) (denoted by P+N (H)); PQQ (0.2 mg/kg/day) +NAC (5 mg/kg/day) (denoted by P+N (L)).
After treatment with drugs for 4 weeks, the mice were killed by anesthesia. The uterus was surgically removed and the invasion of endometria into myometrium was analyzed by the pathological section.

[3] = test system: ectopic endometrial stromal cells; details: NAC 10 mM, report of Ngo et al. 2009; cited from earlier work
cysts of EM patients = details: after three months of treatment with NAC; cited from earlier work
[4] = 4 weeks in drinking water, PQQ (disodium salt) 1 mg/kg/day, NAC 10 mg/kg/day, P+N (H) 1+10, P+N (L) 0.2+5 mg/kg/day

Epigallocatechin-3-gallate [EGCG]
lesion of EM model mice (EM lesions): effectively inhibit the lesion of EM model mice

Oc1ccc(C=Cc2cc(O)cc(O)c2)cc1 [Res, Resveratrol]
weight of ectopic endometrial foci compared with the control group (ectopic endometrial foci; after 4 weeks treatment): no evident difference from that of the control group
weight of cysts after treatment (mg) Mean ± SD (ectopic endometrial foci): 122.1 ± 30.7 mg
lesion of EM model mice (EM lesions): effectively inhibit the lesion of EM model mice

CC(=O)N[C@@H](CS)C(=O)O [NAC, N-acetyl-L-cysteine]
cell proliferation ([1]; NAC 10 um alone): no evident effect
cell proliferation ([1]; NAC 100 um alone): effectively inhibit the cell proliferation
weight of ectopic endometrial foci compared with the control group (ectopic endometrial foci; after 4 weeks treatment): no evident difference from that of the control group
weight of cysts after treatment (mg) Mean ± SD (ectopic endometrial foci): 138.1 ± 33.1 mg
weight of ectopic cys after treatment (mg) Mean ± SD (ectopic endometrial foci; Example 7, rats, 4 weeks in drinking water, PQQ (disodium salt) 1 mg/kg/day, NAC 10 mg/kg/day, P+N (H) 1+10, P+N (L) 0.2+5 mg/kg/day, n=12): 142.1 ± 13.4 mg
weight of ectopic cyst compared with model control group (ectopic endometrial foci; Example 7, rats, after 4 weeks treatment, PQQ as disodium salt): no obvious difference with the control group
infiltration of endometrial glands, positive animals/total animals [2, 4]: 18/20
infiltration of endometrial stroma, positive animals/total animals [2, 4]: 19/20
number of animals with infiltration of endometrial stroma and glands compared with model control group ([2]; after 4 weeks treatment, PQQ as disodium salt): no obvious difference with the control group
proliferation of ectopic endometrial stromal cells [3]: inhibit the proliferation of ectopic endometrial stromal cells
growth of EM lesions (EM lesions; mouse models of endometriosis, NAC daily dose 1.3 g/kg/day): significantly inhibit the growth of EM lesions
cysts sizes within EM patients (cysts of EM patients): cysts sizes within EM patients were reduced significantly
